In patent publication US20220040129A1, “TREATMENT OF HYPERAMMONEMIA IN PATIENTS WITH RENAL INSUFFICIENCY” (RECORDATI S.p.A., priority 2019, published 2022):
Where two headings read alike, the source gives them in different places.

Legend:
[1] = CARIV-A-001 Part A: single ascending IV doses over 20 minutes in healthy subjects; type: in vivo, human; conditions: both sexes, human, plasma, iv
Method: This study was conducted in healthy male or female volunteers, at a single site to assess the safety and PK profile of an IV formulation of Carbaglu and to determine the absolute bioavailability of the current marketed oral formulation of Carbaglu.
The levels of CGA in plasma and urine were analysed using a fully validated method, which included LC-MS/MS analysis. The PK data were analysed based on a non-compartmental model. A model-based approach was implemented for the characterization of the PK properties of the IV formulation in order to estimate the level of PK exposure after different doses administered with different duration of infusion. […] The PK parameters were determined using SAS (version 9.3), and modelling of the PK data was performed using NONMEM (version 7.3, ICON Solutions). PART A: Mono-Centre, Randomized, Successive Groups, Double-Blind, Placebo-Controlled Study in Healthy Male and Female Subjects
Each cohort included a minimum of 3 and maximum of 5 subjects of each of the two genders.
Three loading doses of CGA over 20 minutes were tested by IV administration, 3.5 mg/kg, 5.0 mg/kg and 7.5 mg/kg. For each of these three doses, 6 subjects were administered CGA and 2 received the placebo.
Plasma concentrations of CGA were measured at 18 timepoints, including a sample preceding the start of the administration, and then between 10 minutes and 48 hours following the initiation of the IV infusion.
The PK analysis of Carbaglu was conducted by using standard non-compartmental approach.

[2] = Exposure previously observed in HVs following oral administration; conditions: human, in vivo, read-out: Highest AUC previously observed
[3] = Nonclinical safety study in rats: exposure; conditions: rat, in vivo

Compound `NC(=O)N[C@@H](CCC(=O)O)C(=O)O` [carglumic acid, N-carbamoyl-L-glutamic acid] has an AUC(0-inf) ([1]; 5 mg/kg, IV over 20 minutes, 5.0 mg/kg, read-out: AUCinf, Range) of 12300 to 20000 ng·h/mL, an AUC(0-t) ([1]; 5 mg/kg, IV over 20 minutes, 5.0 mg/kg, read-out: AUClast-timepoint, Mean) of 15300 ng·h/mL and an AUC(0-t) ([1]; 5 mg/kg, IV over 20 minutes, 5.0 mg/kg, read-out: AUClast-timepoint, Median) of 15600 ng·h/mL. It also gave an AUC(0-t) ([1]; 5 mg/kg, IV over 20 minutes, 5.0 mg/kg, read-out: AUClast-timepoint, Range) of 11500 to 19300 ng·h/mL, a clearance ([1]; 5 mg/kg, IV over 20 minutes, 5.0 mg/kg, read-out: Clearance (Cl), Mean) of 5.33 mL/min/kg and a clearance ([1]; 5 mg/kg, IV over 20 minutes, 5.0 mg/kg, read-out: Clearance (Cl), Median) of 5 mL/min/kg. The clearance ([1]; 5 mg/kg, IV over 20 minutes, 5.0 mg/kg, read-out: Clearance (Cl), Range) was 4.17 to 6.83 mL/min/kg, the Cmax ([1]; 5 mg/kg, IV over 20 minutes, 5.0 mg/kg, read-out: Cmax, Mean) was 15000 ng/mL and the Cmax ([1]; 5 mg/kg, IV over 20 minutes, 5.0 mg/kg, read-out: Cmax, Median) was 15600 ng/mL. The Cmax ([1]; 5 mg/kg, IV over 20 minutes, 5.0 mg/kg, read-out: Cmax, Range) was 8420 to 19100 ng/mL, the half-life ([1]; 5 mg/kg, IV over 20 minutes, 5.0 mg/kg, read-out: T1/2, Mean) was 21.6 h and the half-life ([1]; 5 mg/kg, IV over 20 minutes, 5.0 mg/kg, read-out: T1/2, Median) was 21.4 h. For the same compound, the half-life ([1]; 5 mg/kg, IV over 20 minutes, 5.0 mg/kg, read-out: T1/2, Range) was 12.8 to 29.3 h, the Vd ([1]; 5 mg/kg, IV over 20 minutes, 5.0 mg/kg, read-out: Volume of Distribution (Vd), Mean) was 9.94 L/kg and the Vd ([1]; 5 mg/kg, IV over 20 minutes, 5.0 mg/kg, read-out: Volume of Distribution (Vd), Median) was 10.2 L/kg. It also gave a Vd ([1]; 5 mg/kg, IV over 20 minutes, 5.0 mg/kg, read-out: Volume of Distribution (Vd), Range) of 4.62 to 12.8 L/kg, an AUC(0-t) ([1]; 7.5 mg/kg, IV over 20 minutes, 7.5 mg/kg, read-out: AUC24h, Mean) of 21600 ng·h/mL and an AUC(0-t) ([1]; 7.5 mg/kg, IV over 20 minutes, 7.5 mg/kg, read-out: AUC24h, Median) of 20700 ng·h/mL. It also gave an AUC(0-t) ([1]; 7.5 mg/kg, IV over 20 minutes, 7.5 mg/kg, read-out: AUC24h, Range) of 19200 to 26900 ng·h/mL, an AUC(0-inf) ([1]; 7.5 mg/kg, IV over 20 minutes, 7.5 mg/kg, read-out: AUCinf, Mean) of 23900 ng·h/mL and an AUC(0-inf) ([1]; 7.5 mg/kg, IV over 20 minutes, 7.5 mg/kg, read-out: AUCinf, Median) of 23200 ng·h/mL. The AUC(0-inf) ([1]; 7.5 mg/kg, IV over 20 minutes, 7.5 mg/kg, read-out: AUCinf, Range) was 20200 to 29100 ng·h/mL, the AUC(0-t) ([1]; 7.5 mg/kg, IV over 20 minutes, 7.5 mg/kg, read-out: AUClast-timepoint, Mean) was 22600 ng·h/mL and the AUC(0-t) ([1]; 7.5 mg/kg, IV over 20 minutes, 7.5 mg/kg, read-out: AUClast-timepoint, Median) was 22100 ng·h/mL. The AUC(0-t) ([1]; 7.5 mg/kg, IV over 20 minutes, 7.5 mg/kg, read-out: AUClast-timepoint, Range) was 19600 to 27800 ng·h/mL, the clearance ([1]; 7.5 mg/kg, IV over 20 minutes, 7.5 mg/kg, read-out: Clearance (Cl), Mean) was 5.33 mL/min/kg and the clearance ([1]; 7.5 mg/kg, IV over 20 minutes, 7.5 mg/kg, read-out: Clearance (Cl), Median) was 5.33 mL/min/kg. It also gave a clearance ([1]; 7.5 mg/kg, IV over 20 minutes, 7.5 mg/kg, read-out: Clearance (Cl), Range) of 4.33 to 6.17 mL/min/kg, a Cmax ([1]; 7.5 mg/kg, IV over 20 minutes, 7.5 mg/kg, read-out: Cmax, Mean) of 22900 ng/mL and a Cmax ([1]; 7.5 mg/kg, IV over 20 minutes, 7.5 mg/kg, read-out: Cmax, Median) of 23200 ng/mL. The half-life ([1]; 7.5 mg/kg, IV over 20 minutes, 7.5 mg/kg, read-out: T1/2, Mean) was 24.8 h, the half-life ([1]; 7.5 mg/kg, IV over 20 minutes, 7.5 mg/kg, read-out: T1/2, Median) was 25.5 h and the half-life ([1]; 7.5 mg/kg, IV over 20 minutes, 7.5 mg/kg, read-out: T1/2, Range) was 15.3 to 35.4 h. For the same compound, the Vd ([1]; 7.5 mg/kg, IV over 20 minutes, 7.5 mg/kg, read-out: Volume of Distribution (Vd), Mean) was 11.2 L/kg, the Vd ([1]; 7.5 mg/kg, IV over 20 minutes, 7.5 mg/kg, read-out: Volume of Distribution (Vd), Median) was 10.8 L/kg and the Vd ([1]; 7.5 mg/kg, IV over 20 minutes, 7.5 mg/kg, read-out: Volume of Distribution (Vd), Range) was 7.02 to 17.5 L/kg. The half-life ([1]; IV over 20 minutes, across dose groups 3.5-7.5 mg/kg, read-out: Half-life, mean value (converted)) was 22 h, the half-life ([1]; IV over 20 minutes, each cohort, read-out: Half-life, range of cohort means) was 20.6 to 24.8 h and the Vd ([1]; IV over 20 minutes, each cohort, read-out: Volume of distribution (Vd), range of cohort means) was 9.3 to 11.2 L/kg. It also gave a clearance ([1]; IV over 20 minutes, in each cohort, read-out: Total body clearance, mean value (converted)) of 5.33 mL/min/kg, a Vd ([1]; IV over 20 minutes, read-out: Vss, range of cohort means) of 2.21 to 2.39 L/kg and a Vd ([1]; after IV administration, overall analysis on the three groups, read-out: Volume of distribution, median) of 10.2 L/kg. It also gave a half-life ([1]; after IV administration, read-out: Terminal half-life, median (converted)) of ~22 h, a half-life ([1]; after IV administration, read-out: Terminal half-life, range) of 7 to 36 h and a clearance ([1]; after IV administration, read-out: Total clearance, median) of 354 mL/min. For the same compound, the clearance ([1]; after IV administration, read-out: Total clearance, range) was 241 to 502 mL/min, the AUC [2] was 30700 ng·h/mL and the AUC ([3]; read-out: AUC, exposure previously observed) was 258000 ng·h/mL. It also gave a Cmax ([3]; read-out: Cmax, exposure previously observed) of 52000 ng/mL.
